For assay [1], the target named is T1, V. cholerae CqsS receptor (Vibrio cholerae serotype O1, UniProt Q9KM66). In words: CqsS agonist bioassay. It counts as cell-based.
Assay [2] concerns the target T1, V. cholerae CqsS receptor. The following applies: cited from earlier work.

These results are taken from paper PMC3890260 (Chemical science (Royal Society of Chemistry : 2010), 2013).

Molecules are shown by their SMILES.

T1 sequence (Q9KM66 whole entry, looked up): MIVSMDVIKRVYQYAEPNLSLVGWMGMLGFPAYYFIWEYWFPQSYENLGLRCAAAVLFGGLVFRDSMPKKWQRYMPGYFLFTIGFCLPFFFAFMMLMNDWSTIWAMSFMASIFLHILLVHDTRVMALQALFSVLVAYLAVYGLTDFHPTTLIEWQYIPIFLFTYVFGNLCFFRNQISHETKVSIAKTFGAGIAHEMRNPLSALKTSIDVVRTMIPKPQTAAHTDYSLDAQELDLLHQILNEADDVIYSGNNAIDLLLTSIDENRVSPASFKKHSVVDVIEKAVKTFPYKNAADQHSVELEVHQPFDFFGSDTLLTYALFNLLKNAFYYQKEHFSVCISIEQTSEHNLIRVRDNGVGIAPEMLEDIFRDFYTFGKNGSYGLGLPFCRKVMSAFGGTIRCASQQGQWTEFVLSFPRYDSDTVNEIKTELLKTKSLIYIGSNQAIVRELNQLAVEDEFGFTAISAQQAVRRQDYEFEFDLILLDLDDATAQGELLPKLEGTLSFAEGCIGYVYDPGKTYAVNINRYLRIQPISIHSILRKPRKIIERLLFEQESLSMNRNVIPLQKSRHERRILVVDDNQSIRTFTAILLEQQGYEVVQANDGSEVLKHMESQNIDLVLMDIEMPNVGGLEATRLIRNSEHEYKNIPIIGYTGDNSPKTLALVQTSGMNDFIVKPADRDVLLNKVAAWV

Regarding `C/C=C(\N)C(=O)CCCCCCCCC` [Ea-CAI-1], it took 4.1 nM to reach a half-maximal effect in assay [1] (CqsS agonist bioassay, mean of triplicate analyses) (EC50). In assay [1] (Ea-CAI-1 set at 100%), the “% Response (percent maximal bioluminescence with respect to Ea-CAI-1)” value was 100%. For the same molecule, the “potency as CqsS agonist compared to CAI-1” value in assay [2] is listed as “an order of magnitude more potent”.
